According to patent publication US20140378513A1, “USE OF FUNGICIDES IN LIQUID SYSTEMS” (priority 2011, published 2014):

Assays:
[1] = tested on: Pest in infected Scenedesmus dimorphus culture; assay: Fungicide efficacy on pest control in infected microalgae culture; format: cell-based; conditions: for Rating: rating scale of 0 to 3 by percent efficacy; for Scenedesmus dimorphus efficacy: first trial
Excerpt: Failure to treat an infected culture results in the collapse and loss of the microalgae culture. […] Test fungicides are graded on a rating scale of 0 to 3 where a score of 0 represents an efficacy of between 0 and 25%, a score of 1 represents an efficacy of between 26 and 50%, a score of 2 represents an efficacy of between 51 and 75% and a score of 3 represents an efficacy of between 76 and 100%.

[2] = tested on: desmid strain (UTEX 1237); assay: Growth of uncontaminated laboratory microalgae culture with fungicide (OD 750 nm); format: cell-based; conditions: UTEX 1237, 32° C., OD 750 nm daily
Description: (§1) A desmid strain (UTEX 1237) is inoculated into 1 ml of media at an initial A750 of 0.15. […] These cultures are monitored daily for growth by measuring the optical density of the culture at 750 nm. If pests are detected, their genomic DNA is quantitated at the beginning and end of the experiment using the methods presented above. […]
as §1, with “into 1.0” for “into 1”, “media IABR6” for “media”, “initial OD (A750)” for “initial A750”
as §1, with “OD (750 nm)” for “A750”, “in these cultures” for “detected,”, “experiment.” for “experiment using the methods presented above.”

[3] = tested on: pest FD100; assay: 200,000 liter outdoor desmid pond P08, qPCR monitoring and treatment; parameters: species or system chytrid FD100
Description: A 200,000 liter outdoor pond located in Las Cruces, N. Mex. is inoculated with a desmid strain at an initial OD (750 nm) of ˜0.15 (pond P08). Growth of the microalgae is monitored daily by measuring the ash free dry weight of the culture. PCR monitoring is performed daily to detect the presence of pests.
Initially, the Ct value for the pest is above the threshold of Ct=30 until day 15 (See, FIG. 14). The measured Ct observed for pest FD100 monitoring stays below Ct=30 and indicates a need for crop protective action. On day 18 post-inoculation, fluazinam is added at a concentration of 0.5 ppm. Daily monitoring is continued and the Ct observed for pest FD100 increases above the Ct=30 threshold and remains above the threshold through day 38.
Successful culture depends on the timely identification of a pest. On day 30, in response to a decrease in optical density of the culture, 1 ppm of pyraclostrobin is added.

[4] = tested on: chytrids known to infect the strain (desmid UTEX 1237); assay: Growth of chytrid-inoculated microalgae culture with fungicide (OD 750 nm); format: cell-based
Description: Microalgae cultures are prepared as described above and further inoculated with chytrids known to infect the strain, grown, and monitored as described above. […] In contrast, contaminated cultures grown in the presence of 250 ppb or higher concentrations of fluazinam are not affected by the presence of added chytrid. Fluazinam at a concentration of 100 ppb results in a stabilization of microalgae density at 0.8 ODU which is about 4 times the density of microalgae grown in the absence of fluazinam.
(§2) Microalgae cultures are prepared as described above and further inoculated with chytrids known to infect the strain, grown and monitored as described above. […] In contrast, contaminated cultures grown in the presence of 1 ppm or higher concentrations of Headline® are not affected by the presence of added chytrid contaminant. Headline® at a concentration of 0.5 ppm results in a stabilization of microalgae density at about 0.3 ODU which is about 2 times the density of microalgae grown in the absence of Headline®.
as §2, with “2” for “1”, “Thiram®” for “Headline®”, “1.0” for “0.5”, “0.8” for “0.3”, “4” for “2”, “Thiram®.” for “Headline®.”

[5] = tested on: chytrid pest; assay: Outdoor ponds P16 and PA6 with or without fluazinam treatment
Description: Monitoring for chytrid pest and microalgae growth is performed as described in the examples above. In Pond 16 (P16), a signal for the presence of a chytrid pest is detected beginning on Day 8 using the universal primer pair to the methyltransferase gene (SEQ ID NOs: 30 and 31) and to the ITS gene (SEQ ID NOs: 32 and 33). At this point, 400 liters of P16 are inoculated into Pond A6 (PA6). Continuous detection of the presence of chytrid in pond P16 and A6, indicates a need for crop protection and 0.5 ppm of fluazinam is added on Day 11 to P16 but not PA6. Monitoring of the growth of microalgae is continued in both Pond 16 and Pond A6 using total organic carbon (TOC), OD(750), fluorescence, and a FlowCAM®.

[6] = tested on: microalgae; assay: Ranges of microalgae toxicity (serial dilution of fungicide in growing culture); conditions: range in which fungicide begins to show growth effects on microalgae
Excerpt: The present disclosure provides for the introduction of fungicides at an effective concentration. Effective concentrations may be determined according to manufacturer's instructions or may be determined empirically. An effective concentration of a fungicide is not toxic to the microalgae being cultured in the liquid system. Methods to determine toxicity are known in the art and include serial dilutions of a test fungicide in a growing liquid culture of microalgae. One of skill in the art would understand that different microalgae may have different ranges of toxicity that may be determined by growth of a microalga in the presence of a serial dilution of a fungicide.
Algae are screened for sensitivity to chemicals by preparing 180 ml of a log phase culture. The log phase culture is transferred into a 96 well microtiter plate at an absorbance at 750 nm (OD750 or A750) of ˜0.2. Twenty microliters of media is provided into the top row as a negative control, the middle six rows receive a 20 microliter dilution, which is a 10 fold dilution of the chemical at each transfer, of the chemical across an appropriate concentration gradient, and the bottom row receives 20 microliter of the solvent used to solubilize the pesticide alone as a control. The total volume per well is 200 μl. Each chemical is tested in triplicate. The growth of the algae is tracked daily by measuring the A750. After 8 days, the growth rate of the algae is measured by fitting the growth curve to a log model and deriving the maximum growth rate (r). The impact of the chemical is calculated by comparing the r of the algae at various dilutions of the pesticide to the control.

[7] = tested on: Scenedesmus species; assay: Algae sensitivity screen, 96 well, growth rate by A750 over 8 days; format: cell-based; conditions: 8 days
Description: (§3) The total volume per well is 200 μl. Each chemical is tested in triplicate.

[8] = tested on: Scenedesmus dimorphus; assay: as above; format: cell-based
Description: as §3

[9] = tested on: Desmid species; assay: as above; format: cell-based
Description: as §3

[10] = Tetradesmus dimorphus, read-out: Scenedesmus dimorphus efficacy
[11] = fluazinam 100 ppb, contaminated culture
[12] = log phase culture, 10 fold dilutions

## O=[N+]([O-])c1cc(C(F)(F)F)c(Cl)c([N+](=O)[O-])c1Nc1ncc(C(F)(F)F)cc1Cl [fluazinam, 3-chloro-N-[3-chloro-2,6-dinitro-4-(trifluoromethyl)phenyl]-5-(trifluoromethyl)-2-pyridinamine]
[1]; [10]
  activity at 0.8 ppm: 67%
[1]
  Rating: 2 (a score of 2 represents an efficacy of between 51 and 75%)
[2]
  concentrations that do not significantly affect the growth of the uncontaminated microalgae culture: up to 2 ppm
[3]; 0.5 ppm added day 18 post-inoculation, through day 38
  Ct observed for pest FD100 after treatment: > 30
[4]; UTEX 1237 inoculated with chytrids
  concentration at which contaminated cultures are not affected by the presence of added chytrid: ≥ 250 ppb
[4]; [11]
  density relative to microalgae grown in the absence of fungicide: about 4 times
  stabilization of microalgae density: 0.8 ODU
[5]; 0.5 ppm added on Day 11 to P16, untreated PA6 collapses
  growth of microalgae in treated pond: Logarithmic growth continues
[5]; 0.5 ppm, pond P16, increases in untreated PA6
  fraction of infected cells after treatment: stabilizes or decreases
[6]
  Ranges of Microalgae toxicity: >7.5 ppm

## COC(=O)N(OC)c1ccccc1COc1ccn(-c2ccc(Cl)cc2)n1 [pyraclostrobin, methyl N-[2-[[[1-(4-chlorophenyl)-1H-pyrazol-3-yl]oxy]methyl]phenyl]-N-methoxycarbamate]
[1]; [10]
  activity at 2 ppm: 66%
[1]
  Rating: 2 (a score of 2 represents an efficacy of between 51 and 75%)
[3]; 1 ppm added on day 30 after decrease in optical density
  culture outcome after second fungicide: the culture collapses
[6]
  Ranges of Microalgae toxicity: >15 ppm

## CON=C(Cc1cccnc1)c1ccc(Cl)cc1Cl [pyrifenox]
[7]; [12]
  Scenedesmus species toxicity: 0.039-0.156 ppm
[8]; [12]
  Scenedesmus dimorphus toxicity: 0.039-0.156 ppm
[9]; [12]
  Desmid species toxicity: 0.004-0.0156 ppm
[1]; result as symbol
  Scenedesmus dimorphus efficacy: (+/−)
[1]
  Rating: 0 (a score of 0 represents an efficacy of between 0 and 25%)
[6]
  Ranges of Microalgae toxicity: 0.004-0.156 ppm

## CCCN(CC)CC1COC2(CCC(C(C)(C)C)CC2)O1 (centres unmarked) [spiroxamine]
[7]; Scenedesmus species
  Scenedesmus species toxicity: 0.250-1.0 ppm
[8]; Scenedesmus dimorphus
  Scenedesmus dimorphus toxicity: 0.0625-0.250 ppm
[9]; Desmid species
  Desmid species toxicity: 0.250-1.0 ppm
[1]
  Rating: 0 (a score of 0 represents an efficacy of between 0 and 25%)
[6]
  Ranges of Microalgae toxicity: 0.0625-1.0 ppm

## Cc1ccc(N(SC(F)(Cl)Cl)S(=O)(=O)N(C)C)cc1 [tolylfluanid, N-[dichloro(fluoro)methyl]sulfanyl-N-(dimethylsulfamoyl)-4-methylaniline]
[7]; Scenedesmus species
  Scenedesmus species toxicity: 6.25-25.0 ppm
[8]; Scenedesmus dimorphus
  Scenedesmus dimorphus toxicity: 1.56-6.25 ppm
[9]; Desmid species
  Desmid species toxicity: 6.25-25.0 ppm
[1]; 5 ppm, result in words
  Scenedesmus dimorphus efficacy: 5 ppm Delayed Crash
[1]
  Rating: 0 (a score of 0 represents an efficacy of between 0 and 25%)
[6]
  Ranges of Microalgae toxicity: 1.56-25.0 ppm

## CCCOC/C(=N\c1ccc(Cl)cc1C(F)(F)F)n1ccnc1 [triflumizole]
[7]; Scenedesmus species
  Scenedesmus species toxicity: 1.563-6.25 ppm
[8]; Scenedesmus dimorphus
  Scenedesmus dimorphus toxicity: 1.563-6.25 ppm
[9]; Desmid species
  Desmid species toxicity: 1.563-6.25 ppm
[1]
  Rating: 0 (a score of 0 represents an efficacy of between 0 and 25%)
[6]
  Ranges of Microalgae toxicity: 1.563-6.25 ppm

## CCC(C)(NC(=O)c1cc(Cl)c(C)c(Cl)c1)C(=O)CCl (centres unmarked) [zoxamide]
[7]; Scenedesmus species
  Scenedesmus species toxicity: 0.0156-0.0625 ppm
[8]; Scenedesmus dimorphus
  Scenedesmus dimorphus toxicity: 0.0625-0.250 ppm
[9]; Desmid species
  Desmid species toxicity: 0.0156-0.0625 ppm
[1]
  Rating: 0 (a score of 0 represents an efficacy of between 0 and 25%)
[6]
  Ranges of Microalgae toxicity: 0.0156-0.250 ppm
